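These data come from cells grown in 96-well plates and exposed to compound for 48 hours at five concentrations. At the GI50, growth is halved.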 Calls of active or inactive are those of the source. Cut-off read from the data, not from the text of the source: active = GI50 up to about 1.1 µM and inactive = higher. Bounds are passed on as bounds.

Test systems include SF-295; ACHN; MDA-MB-231; SK-OV-3; NCI-H460; SN12C; CCRF-CEM; SNB-19; SF-539; MCF7; RXF 393; K562; SF-268; OVCAR-8; EKVX; A549; SK-MEL-28; HCT-116; CAKI-1; UACC-257.
Common to all, as to assay: NCI anticancer screen, dose series, 48 h

Turning to `ClC1(c2ccccc2)c2ccc(Br)cc2-c2cc(Br)ccc21`, the GI50 is 17.9 µM (inactive) with SF-295; 16.1 µM (inactive) in the test with ACHN; 16.7 µM (inactive) in the test on MDA-MB-231; 17.6 µM (inactive) in the test on SK-OV-3; 14.3 µM (inactive) in the test with NCI-H460; 18.6 µM (inactive) in the test on SN12C. Also, the GI50 is 34.6 µM (inactive) in the test with CCRF-CEM; 16.9 µM (inactive) in the test on SNB-19; 18.7 µM (inactive) in the test with SF-539; 19 µM (inactive) in the test with MCF7; 18.4 µM (inactive) in the test with RXF 393; > 100 µM (inactive) with K562. Besides, the GI50 in the test with SF-268 is 18.5 µM (inactive); in the test with OVCAR-8, 18.2 µM (inactive); in the test on EKVX it was 17.9 µM (inactive); in the test with A549, 17.1 µM (inactive); in the test with SK-MEL-28, 18.8 µM (inactive); in the test with HCT-116 it was 14.9 µM (inactive). In addition, the GI50 was 14.9 µM (inactive) with CAKI-1 and 18.3 µM (inactive) in the test with UACC-257.

Take `Brc1ccc(CCNCCN2CCCCC2)cc1`: the GI50 with SF-295 was 18.3 µM (inactive); in the test with ACHN, 20.6 µM (inactive); in the test on MDA-MB-231, 8.05 µM (inactive); in the test on SK-OV-3 it was 21.2 µM (inactive); in the test on NCI-H460, 14.7 µM (inactive); in the test on SN12C it was 25.9 µM (inactive). In addition, the GI50 in the test on CCRF-CEM was 14.2 µM (inactive); in the test with SNB-19 it was 17.3 µM (inactive); with SF-539 it was 10.9 µM (inactive); in the test on MCF7 it was 15.7 µM (inactive); with RXF 393, 33.6 µM (inactive); with K562, 4.1 µM (inactive). Moreover, the GI50 is 15.5 µM (inactive) in the test on SF-268; 16.5 µM (inactive) in the test with OVCAR-8; 33.1 µM (inactive) with EKVX; 16.4 µM (inactive) with A549; 11.8 µM (inactive) in the test on SK-MEL-28; 12.1 µM (inactive) in the test on HCT-116. Further, the GI50 was 14.1 µM (inactive) in the test on CAKI-1 and 14.8 µM (inactive) in the test on UACC-257.

With `Cc1cc(C)c(-c2no/c(=N\S(=O)(=O)c3ccc(Cl)cc3)o2)c(C)c1`, the GI50 with SF-295, in the test with ACHN, with MDA-MB-231, with SK-OV-3, in the test with NCI-H460 and in the test on SN12C was > 100 µM (inactive) throughout. For the same compound, the GI50 was > 100 µM (inactive) in the test with CCRF-CEM; > 100 µM (inactive) with SNB-19; > 100 µM (inactive) in the test with SF-539; 16.4 µM (inactive) in the test on MCF7; > 100 µM (inactive) in the test with RXF 393; 49.5 µM (inactive) in the test on K562. The GI50 with SF-268 was > 100 µM (inactive); with OVCAR-8, > 100 µM (inactive); in the test on EKVX it was > 100 µM (inactive); in the test on A549, > 100 µM (inactive); with SK-MEL-28, > 100 µM (inactive); in the test with HCT-116, 51.1 µM (inactive). The GI50 in the test with CAKI-1 is > 100 µM (inactive); in the test on UACC-257 it was 31.1 µM (inactive).

On to `COc1nc(C)nc2c1ncn2Cc1ccccc1`, for which the GI50 in the test with SF-295, in the test on ACHN, with MDA-MB-231, in the test on SK-OV-3, in the test on NCI-H460 and with SN12C was > 100 µM (inactive) each time. The GI50 in the test on CCRF-CEM was > 100 µM (inactive); in the test on SNB-19, > 100 µM (inactive); in the test on SF-539, > 100 µM (inactive); with MCF7 it was 58.9 µM (inactive); with RXF 393, > 100 µM (inactive); in the test on K562, > 100 µM (inactive). For the same compound, the GI50 was 57.3 µM (inactive) with SF-268; > 100 µM (inactive) in the test on OVCAR-8; 80.7 µM (inactive) with EKVX; > 100 µM (inactive) with A549; > 100 µM (inactive) in the test with SK-MEL-28; > 100 µM (inactive) in the test with HCT-116. The GI50 in the test on CAKI-1 is 66.2 µM (inactive); in the test with UACC-257, > 100 µM (inactive).

`COc1cc(CCNC2=CC(=O)c3nc[nH]c3C2=O)ccc1O`: the GI50 in the test with SF-295 was 28.4 µM (inactive); with ACHN it was 30.3 µM (inactive); in the test with MDA-MB-231, 30.9 µM (inactive); with SK-OV-3, 34.4 µM (inactive); in the test on NCI-H460, 25.7 µM (inactive); with SN12C, 19.1 µM (inactive). Also, the GI50 in the test with CCRF-CEM is 33.3 µM (inactive); in the test with SNB-19, 18.2 µM (inactive); in the test with SF-539, 34.5 µM (inactive); in the test with MCF7 it was 17.1 µM (inactive); in the test on RXF 393, 43.2 µM (inactive); in the test with K562, 34.1 µM (inactive). Further, the GI50 is 38.9 µM (inactive) with SF-268; 19.6 µM (inactive) in the test on OVCAR-8; 21.2 µM (inactive) in the test with EKVX; 26.6 µM (inactive) with A549; 26.7 µM (inactive) with SK-MEL-28; 19.6 µM (inactive) with HCT-116. Moreover, the values for the GI50 with CAKI-1 and in the test with UACC-257 were 48.3 µM (inactive) and 19.8 µM (inactive), respectively.

Regarding `C/C(=N/NC(=S)N1CCCCC1)c1ccccc1O`, the GI50 in the test with SF-295 was > 31.6 µM (inactive); in the test on ACHN, > 31.6 µM (inactive); in the test on MDA-MB-231 it was > 100 µM (inactive); in the test on SK-OV-3 it was > 31.6 µM (inactive); with NCI-H460 it was 22.6 µM (inactive); in the test with SN12C, > 31.6 µM (inactive). Also, the GI50 was 21.7 µM (inactive) in the test with CCRF-CEM; > 31.6 µM (inactive) in the test on SNB-19; > 100 µM (inactive) in the test on SF-539; 14.3 µM (inactive) in the test on MCF7; > 31.6 µM (inactive) in the test on RXF 393; 22.8 µM (inactive) in the test on K562. The GI50 in the test with SF-268 is 21.5 µM (inactive); with OVCAR-8 it was > 31.6 µM (inactive); in the test on EKVX it was 29.9 µM (inactive); in the test with A549, > 31.6 µM (inactive); in the test with SK-MEL-28, > 31.6 µM (inactive); in the test on HCT-116 it was > 10 µM (inactive). In addition, the GI50 with CAKI-1 and in the test with UACC-257 was > 31.6 µM (inactive) throughout.

Consider `O=C(N/N=C\c1ccc(Cl)cc1)Nc1cccc2ccccc12`, for which the GI50 with SF-295 is 2.52 µM (inactive); with ACHN it was 2.37 µM (inactive); with MDA-MB-231 it was 8.89 µM (inactive); with SK-OV-3 it was 2.71 µM (inactive); in the test with NCI-H460, 3.24 µM (inactive); in the test with SN12C it was 9.51 µM (inactive). The GI50 in the test on CCRF-CEM is 7.96 µM (inactive); in the test on SNB-19, 2.66 µM (inactive); with SF-539, 5.41 µM (inactive); in the test with MCF7 it was 3.4 µM (inactive); in the test with RXF 393, 3.01 µM (inactive); with K562, 3.23 µM (inactive). Further, the GI50 in the test with SF-268 is 6.44 µM (inactive); with OVCAR-8, 5.2 µM (inactive); in the test on EKVX, 18.7 µM (inactive); with A549 it was 6.71 µM (inactive); with SK-MEL-28 it was 22.5 µM (inactive); in the test on HCT-116, 3.04 µM (inactive). Besides, the GI50 with CAKI-1 is 2.42 µM (inactive); in the test with UACC-257, 8.75 µM (inactive).

`COc1ccc2oc3c(C)cc4c(OC)nnc(OC)c4c3c2c1`: the GI50 in the test with SF-295 was 8.51 µM (inactive); with ACHN, 5.05 µM (inactive); in the test on MDA-MB-231 it was 22.9 µM (inactive); in the test on SK-OV-3, > 100 µM (inactive); with NCI-H460 it was 3.79 µM (inactive); with SN12C it was 7.76 µM (inactive). The GI50 is 5.21 µM (inactive) with CCRF-CEM; 13.6 µM (inactive) with SNB-19; 7.89 µM (inactive) with SF-539; 16.3 µM (inactive) with MCF7; 58.1 µM (inactive) with RXF 393; 6.87 µM (inactive) in the test with K562. In addition, the GI50 with SF-268 was 6.53 µM (inactive); with OVCAR-8, 6.65 µM (inactive); in the test with EKVX, 17.9 µM (inactive); in the test with A549, 9.57 µM (inactive); in the test with SK-MEL-28, 68.2 µM (inactive); with HCT-116, 2.17 µM (inactive). The GI50 in the test on CAKI-1 was 34 µM (inactive); in the test on UACC-257 it was 42 µM (inactive).

On to `O=c1cc(/N=N\c2ccc(Cl)cc2)[nH]c(=O)[nH]1`, for which the GI50 in the test with SF-295 was 13.9 µM (inactive); with ACHN it was 2.32 µM (inactive); in the test with MDA-MB-231 it was 3.6 µM (inactive); in the test with SK-OV-3 it was 14.7 µM (inactive); in the test on NCI-H460, 5.52 µM (inactive); with SN12C, 3.98 µM (inactive). Besides, the GI50 in the test with CCRF-CEM is 1.44 µM (inactive); with SNB-19, 10.3 µM (inactive); with SF-539, 4.44 µM (inactive); with MCF7, 3.97 µM (inactive); in the test with RXF 393 it was 6.37 µM (inactive); with K562, 3.43 µM (inactive). Further, the GI50 is 4.61 µM (inactive) in the test with SF-268; 5.68 µM (inactive) with OVCAR-8; 4.09 µM (inactive) in the test on EKVX; 10.1 µM (inactive) with A549; 4.69 µM (inactive) in the test with SK-MEL-28; 1.94 µM (inactive) in the test with HCT-116. Also, the GI50 is 0.923 µM (active) with CAKI-1 and 4.83 µM (inactive) with UACC-257.

Take `COc1cc(/C=C2\CC/C(=C\c3cc(OC)c(O)c(OC)c3)C2=O)cc(OC)c1O`: the GI50 with SF-295 is 3.98 µM (inactive); in the test on ACHN, 2.05 µM (inactive); in the test on MDA-MB-231, 2.14 µM (inactive); in the test on SK-OV-3, 3.81 µM (inactive); with NCI-H460, 1.89 µM (inactive); with SN12C it was 8.32 µM (inactive). Besides, the GI50 in the test with CCRF-CEM was 1.85 µM (inactive); with SNB-19 it was 3.69 µM (inactive); with SF-539, 3.61 µM (inactive); with MCF7, 1.91 µM (inactive); in the test on RXF 393, 1.72 µM (inactive); with K562, 2.76 µM (inactive). Further, the GI50 in the test on SF-268 is 2.3 µM (inactive); in the test with OVCAR-8, 3.01 µM (inactive); with EKVX, 3.13 µM (inactive); in the test on A549, 3.19 µM (inactive); with SK-MEL-28, 1.05 µM (active); in the test on HCT-116 it was 1.83 µM (inactive). Also, the GI50 in the test with CAKI-1 was 2.72 µM (inactive); with UACC-257, 2.03 µM (inactive).

The record behind these values is ChEMBL document CHEMBL1201862, “PubChem BioAssay data set” (2004).
